Experimental data: patent US20190119200A1, “TERTIARY AMIDES AND METHOD OF USE” (AbbVie Inc., priority 2016, published 2019)

Legend:
[1] = test system: LPA-induced MCP-1 in NRK-49F cells; assay: LPA-induced MCP-1 AlphaLISA assay; format: cell-based; conditions: Rattus norvegicus, final LPA 10 μM, 7 hours; for Emax: read-out: Maximum Inhibition
In short: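 NRK-49F rat fibroblasts, serum-starved overnight, pretreated with compound for 30 min at 37 °C (1% DMSO final), then stimulated with 10 μM LPA final. MCP-1 in the supernatant was measured by mouse/rat CCL2 AlphaLISA. IC50 values came from four-parameter logistic fits of the ratio data.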

[2] = target: T1, LPAR1 (Homo sapiens, UniProt Q92633); assay: LPAR1 Arrestin Assay (arrestin reporter assay); format: cell-based; conditions: U2OS cells stably expressing the LPAR1 receptor, 200 nM 18:1 LPA (EC80); for Emax: read-out: Maximum Inhibition
T1 construct: host or cells: U2OS
T1 sequence (Q92633 whole entry): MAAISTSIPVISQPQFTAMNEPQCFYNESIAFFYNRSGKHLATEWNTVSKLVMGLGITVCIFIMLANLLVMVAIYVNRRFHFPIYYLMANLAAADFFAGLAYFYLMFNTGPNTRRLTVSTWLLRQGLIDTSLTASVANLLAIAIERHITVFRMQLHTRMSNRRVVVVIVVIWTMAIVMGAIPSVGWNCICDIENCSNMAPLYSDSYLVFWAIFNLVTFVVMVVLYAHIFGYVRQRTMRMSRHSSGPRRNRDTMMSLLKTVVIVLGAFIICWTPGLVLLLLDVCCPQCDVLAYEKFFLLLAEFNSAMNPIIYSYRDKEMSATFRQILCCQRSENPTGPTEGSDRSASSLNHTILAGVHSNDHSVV
Experimental: One day prior to the experiment, frozen U2OS cells stably expressing the LPAR1 receptor (Life Technologies, Grand Island, N.Y., #K1519A) were thawed, centrifuged at 1,000 rpm for 5 minutes to remove DMSO, and resuspended in FreeStyle™ media (Gibco, Grand Island, N.Y.). Forty microliters of cells were plated into PDL-coated 384-well plates (Greiner Bio-One, Monroe, N.C.) at 10,000 cells/well, and then the plates were incubated overnight in humidified 5% CO2 at 37° C. Test compounds were dissolved in DMSO, and 12-point, 1:3 dilution CRCs were prepared in duplicate; daughter plates were prepared by aliquoting 0.8 μL/well of test compound dilutions into 384-well plates. On the day of the assay, the daughter plates were diluted to 6× stocks using HEPES-buffered HBSS, then 10 μL of 6× test compounds were added to the cells, and the plates were incubated at 37° C. for one hour. After this 1 hour incubation, 10 μL of a 6× stock of the LPAR1 agonist, 18:1 LPA (Avanti Polar Lipids, Alabaster, Ala.), was prepared in HEPES-buffered HBSS+0.1% fatty acid-free BSA (Sigma, St. Louis, Mo.). The 6×LPA was added to all wells for a final concentration of 200 nM, which corresponds to the 18:1 LPA EC80 in this arrestin assay. The final DMSO concentration in the assay plate was 0.1%, and the final BSA concentration was 0.02%. After addition of LPA to all wells, the assay plates were incubated in humidified 5% CO2 at 37° C. for five hours. During the incubation period, 6× dye from the LiveBLAzer™-FRET B/G with CCF4-AM kit (Life Technologies, Grand Island, N.Y.) was prepared according to manufacturers' instructions. At the end of the 5 hour compound incubation, 10 μL of 6× dye was added to each well, and the assay plate was incubated for two hours in the dark at room temperature. Throughout the assay procedure, all volume additions were performed with a Biomek® NX liquid handler (Beckman Coulter, Indianapolis, Ind.). After the 2 hour dye-load, fluorescence was measured on an EnVision® Multilabel Plate Reader (Perkin Elmer, Waltham, Mass.) with an excitation filter at 409/20 nm and emission filters at 460/40 nm and 530/30 nm. Data processing was performed as recommended by the LiveBLAzer™-FRET B/G with CCF4-AM kit manual; all test compound CRCs were performed in duplicate with n≥3.

**Q.** For COc1cc(C(=O)N(CCCc2cccc(F)c2)CCOCC(=O)O)cc(OC)c1C [Example 129, (2-{(3,5-dimethoxy-4-methylbenzoyl)[3-(3-fluorophenyl)propyl]amino}ethoxy)acetic Acid], which IC50 [1] is on record?
**A.** 968 nM

**Q.** And the Emax [1]?
**A.** 90%

**Q.** And the IC50 [2]?
**A.** 218 nM

**Q.** And the Emax [2]?
**A.** 124%

**Q.** For COc1cc(C(=O)N(CCCc2cccc(Cl)c2)CCSCC(=O)O)cc(OC)c1C [Example 122, [(2-{[3-(3-chlorophenyl)propyl](3,5-dimethoxy-4-methylbenzoyl)amino}ethyl)sulfanyl]acetic Acid], which IC50 [1] is on record?
**A.** 419 nM

**Q.** What about the Emax [1] of the same molecule?
**A.** 97%

**Q.** What about the IC50 [2] of the same molecule?
**A.** 152 nM

**Q.** And the Emax [2]?
**A.** 127%

**Q.** Which results are given for COc1cc(C(=O)N(CCCCC(=O)O)CCCc2ccccc2)cc(OC)c1Br [Example 20, 5-[(4-bromo-3,5-dimethoxybenzoyl)(3-phenylpropyl)amino]pentanoic Acid]?
**A.** IC50 [1]: 169 nM; Emax [1]: 89%; IC50 [2]: 43 nM; Emax [2]: 101%

**Q.** Which IC50 [1] does the source give for COc1cc(C(=O)N(CCCc2ccccc2)CCOCP(=O)(O)O)cc(OC)c1C [Example 50, ({2-[(3,5-dimethoxy-4-methylbenzoyl)(3-phenylpropyl)amino]ethoxy}methyl)phosphonic Acid] here?
**A.** 2 nM

**Q.** What about the Emax [1] of the same molecule?
**A.** 98%

**Q.** And the IC50 [2]?
**A.** 1 nM

**Q.** What about the Emax [2] of the same molecule?
**A.** 103%

**Q.** How did the IC50 [1] turn out when COc1cc(C(=O)N(CCCc2ccccc2)CCOCC(=O)O)cc(OC)c1C [Example 6, {2-[(3,5-dimethoxy-4-methylbenzoyl)(3-phenylpropyl)amino]ethoxy}acetic Acid] was run?
**A.** 723 nM

**Q.** And the Emax [1]?
**A.** 80%

**Q.** What about the IC50 [2] of the same molecule?
**A.** 126 nM

**Q.** What about the Emax [2] of the same molecule?
**A.** 130%

**Q.** COc1cc(C(=O)N(CCCCC(=O)O)CCCc2cccc(Cl)c2)cc(OC)c1C [Example 38, 5-{[3-(3-chlorophenyl)propyl](3,5-dimethoxy-4-methylbenzoyl)amino}pentanoic Acid] was tested. Which IC50 [1] did it give?
**A.** 108 nM

**Q.** And the Emax [1]?
**A.** 91%

**Q.** And the IC50 [2]?
**A.** 26 nM

**Q.** And the Emax [2]?
**A.** 114%

**Q.** What does the source list for COc1cc(C(=O)N(CCCc2ccccc2)CCSCCC(=O)O)cc(OC)c1C [Example 60, 3-({2-[(3,5-dimethoxy-4-methylbenzoyl)(3-phenylpropyl)amino]ethyl}sulfanyl)propanoic Acid]?
**A.** IC50 [1]: 1550 nM; Emax [1]: 84%; IC50 [2]: 308 nM; Emax [2]: 110%

**Q.** How did the IC50 [1] turn out when COc1cc(OC)cc(C(=O)N(CCCCC(=O)O)CCCc2cccc(Cl)c2)c1 [Example 91, 5-{[3-(3-chlorophenyl)propyl](3,5-dimethoxybenzoyl)amino}pentanoic Acid] was run?
**A.** 2090 nM

**Q.** And the Emax [1]?
**A.** 84%

**Q.** What about the IC50 [2] of the same molecule?
**A.** 293 nM

**Q.** And the Emax [2]?
**A.** 120%

**Q.** What does the source list for COc1cc(C(=O)N(CCCc2ccccc2)CC(=O)NC2(C(=O)O)CC2)cc(OC)c1C [Example 3, 1-{[N-(3,5-dimethoxy-4-methylbenzoyl)-N-(3-phenylpropyl)glycyl]amino}cyclopropane-1-carboxylic Acid]?
**A.** IC50 [1]: 3120 nM; Emax [1]: 74%; IC50 [2]: 2230 nM; Emax [2]: 110%

**Q.** What does the source list for COc1cc(C(=O)N(CCCc2ccccc2)CCSCC(=O)O)cc(OC)c1C [Example 44, ({2-[(3,5-dimethoxy-4-methylbenzoyl)(3-phenylpropyl)amino]ethyl}sulfanyl)acetic Acid]?
**A.** IC50 [1]: 410 nM; Emax [1]: 91%; IC50 [2]: 69 nM; Emax [2]: 114%

**Q.** For COc1cc(C(=O)N(CCCCC(=O)O)CCCc2cccc(F)c2)cc(OC)c1C [Example 33, 5-{(3,5-dimethoxy-4-methylbenzoyl)[3-(3-fluorophenyl)propyl]amino}pentanoic Acid], which IC50 [1] is on record?
**A.** 215 nM

**Q.** And the Emax [1]?
**A.** 84%

**Q.** And the IC50 [2]?
**A.** 71 nM

**Q.** What about the Emax [2] of the same molecule?
**A.** 110%

**Q.** For COc1cc(C(=O)N(CCCCC(=O)NS(C)(=O)=O)CCCc2ccccc2)cc(OC)c1C [Example 111, N-{5-[(methanesulfonyl)amino]-5-oxopentyl}-3,5-dimethoxy-4-methyl-N-(3-phenylpropyl)benzamide], which IC50 [1] is on record?
**A.** 787 nM

**Q.** What about the Emax [1] of the same molecule?
**A.** 91%

**Q.** What about the IC50 [2] of the same molecule?
**A.** 93 nM

**Q.** What about the Emax [2] of the same molecule?
**A.** 116%

**Q.** Which results are given for COc1cc(C(=O)N(CCCc2ccccc2)CCC[C@@H](C)C(=O)O)cc(OC)c1C (single isomer, unassigned) [Example 77]?
**A.** IC50 [1]: 60 nM; Emax [1]: 92%; IC50 [2]: 5 nM; Emax [2]: 102%

**Q.** With COc1cc(C(=O)N(CCCCC(=O)O)CCCc2ccc(F)cc2)cc(OC)c1C [Example 34, 5-{(3,5-dimethoxy-4-methylbenzoyl)[3-(4-fluorophenyl)propyl]amino}pentanoic Acid] as the molecule, how does the IC50 [1] read?
**A.** 786 nM

**Q.** What about the Emax [1] of the same molecule?
**A.** 77%

**Q.** What about the IC50 [2] of the same molecule?
**A.** 391 nM

**Q.** What about the Emax [2] of the same molecule?
**A.** 115%

**Q.** How did the IC50 [1] turn out when COc1ccc(C2(C(=O)N(CCCc3ccccc3)CCSCC(=O)O)CC2)cc1 [Example 115, [(2-{[1-(4-methoxyphenyl)cyclopropane-1-carbonyl](3-phenylpropyl)amino}ethyl)sulfanyl]acetic Acid] was run?
**A.** 3540 nM

**Q.** And the Emax [1]?
**A.** 67%

**Q.** And the IC50 [2]?
**A.** 1080 nM

**Q.** What about the Emax [2] of the same molecule?
**A.** 104%

**Q.** What does the source list for COc1cc(C(=O)N(CCCCC(=O)O)CCCc2ccccc2)cc(OC)c1C [Example 4, 5-[(3,5-dimethoxy-4-methylbenzoyl)(3-phenylpropyl)amino]pentanoic Acid]?
**A.** IC50 [1]: 188 nM; Emax [1]: 91%; IC50 [2]: 27 nM; Emax [2]: 101%

**Q.** For COc1cc(C(=O)N(CCCc2ccc(C)o2)CCSCC(=O)O)cc(OC)c1C [Example 132, [(2-{(3,5-dimethoxy-4-methylbenzoyl)[3-(5-methylfuran-2-yl)propyl]amino}ethyl)sulfanyl]acetic Acid], which IC50 [1] is on record?
**A.** 783 nM

**Q.** What about the Emax [1] of the same molecule?
**A.** 80%

**Q.** And the IC50 [2]?
**A.** 490 nM

**Q.** And the Emax [2]?
**A.** 126%

**Q.** With COc1cc(C(=O)N(CCCc2ccccc2)CCSC(C)CC(=O)O)cc(OC)c1C (stereo not shown) [Example 62, 3-({2-[(3,5-dimethoxy-4-methylbenzoyl)(3-phenylpropyl)amino]ethyl}sulfanyl)butanoic Acid] as the molecule, how does the IC50 [1] read?
**A.** 184 nM

**Q.** And the Emax [1]?
**A.** 94%

**Q.** What about the IC50 [2] of the same molecule?
**A.** 39 nM

**Q.** What about the Emax [2] of the same molecule?
**A.** 114%

**Q.** What does the source list for COc1cc(C(=O)N(CCCc2ccccc2)CCOCC(=O)NS(C)(=O)=O)cc(OC)c1C [Example 157, N-(2-{2-[(methanesulfonyl)amino]-2-oxoethoxy}ethyl)-3,5-dimethoxy-4-methyl-N-(3-phenylpropyl)benzamide]?
**A.** IC50 [1]: 460 nM; Emax [1]: 77%; IC50 [2]: 108 nM; Emax [2]: 128%

**Q.** COc1cc(C(=O)N(CCCc2ccccc2F)CCOCC(=O)O)cc(OC)c1C [Example 110, (2-{(3,5-dimethoxy-4-methylbenzoyl)[3-(2-fluorophenyl)propyl]amino}ethoxy)acetic Acid] was tested. Which IC50 [1] did it give?
**A.** 1260 nM

**Q.** What about the Emax [1] of the same molecule?
**A.** 83%

**Q.** And the IC50 [2]?
**A.** 706 nM

**Q.** And the Emax [2]?
**A.** 110%

**Q.** COc1cc(C(=O)N(CCCc2cccc(Cl)c2)CCOCC(=O)O)cc(OC)c1C [Example 109, (2-{[3-(3-chlorophenyl)propyl](3,5-dimethoxy-4-methylbenzoyl)amino}ethoxy)acetic Acid] was tested. Which IC50 [1] did it give?
**A.** 1550 nM

**Q.** What about the Emax [1] of the same molecule?
**A.** 91%

**Q.** What about the IC50 [2] of the same molecule?
**A.** 139 nM

**Q.** What about the Emax [2] of the same molecule?
**A.** 111%

**Q.** What does the source list for COc1cc(OC)cc(C(=O)N(CCCCC(=O)O)CCCc2ccccc2)c1 [Example 7, 5-[(3,5-dimethoxybenzoyl)(3-phenylpropyl)amino]pentanoic Acid]?
**A.** IC50 [1]: 2630 nM; Emax [1]: 71%; IC50 [2]: 713 nM; Emax [2]: 108%

**Q.** COc1cc(C(=O)N(CCCCC(=O)O)CCCc2ccccc2)cc(OC)c1C1CC1 [Example 35, 5-[(4-cyclopropyl-3,5-dimethoxybenzoyl)(3-phenylpropyl)amino]pentanoic Acid] was tested. Which IC50 [1] did it give?
**A.** 107 nM

**Q.** What about the Emax [1] of the same molecule?
**A.** 92%

**Q.** And the IC50 [2]?
**A.** 13 nM

**Q.** And the Emax [2]?
**A.** 103%

**Q.** What does the source list for COc1cc(C(=O)N(CCCCC(=O)O)CCCc2ccco2)cc(OC)c1C [Example 173, 5-{(3,5-dimethoxy-4-methylbenzoyl)[3-(furan-2-yl)propyl]amino}pentanoic Acid]?
**A.** IC50 [1]: 4540 nM; Emax [1]: 64%; IC50 [2]: 295 nM; Emax [2]: 122%

**Q.** With COc1cc(C(=O)N(CCCc2ccccc2Cl)CCOCC(=O)O)cc(OC)c1C [Example 131, (2-{[3-(2-chlorophenyl)propyl](3,5-dimethoxy-4-methylbenzoyl)amino}ethoxy)acetic Acid] as the molecule, how does the IC50 [1] read?
**A.** 1730 nM

**Q.** What about the Emax [1] of the same molecule?
**A.** 71%

**Q.** And the IC50 [2]?
**A.** 2140 nM

**Q.** What about the Emax [2] of the same molecule?
**A.** 120%
